Test results published in paper PMC10313808, “Lipoxygenase inhibitory synthetic derivatives of methyl gallate regulate gene expressions of COX-2 and cytokines to reduce animal model arthritis” (Scientific Reports, 2023).
Like-named read-outs stand apart in the source and are kept apart here.

Assays:
[1] = molecular target: T1, Lipoxidase from Glycine max (15- LOX) (Glycine max, UniProt P08170); assay: In-vitro LOX enzyme inhibition assay (spectrophotometric, 234 nm); format: biochemical
T1 construct: purchased Sigma (Sigma-Aldrich, UK)
T1 sequence (P08170 1-839): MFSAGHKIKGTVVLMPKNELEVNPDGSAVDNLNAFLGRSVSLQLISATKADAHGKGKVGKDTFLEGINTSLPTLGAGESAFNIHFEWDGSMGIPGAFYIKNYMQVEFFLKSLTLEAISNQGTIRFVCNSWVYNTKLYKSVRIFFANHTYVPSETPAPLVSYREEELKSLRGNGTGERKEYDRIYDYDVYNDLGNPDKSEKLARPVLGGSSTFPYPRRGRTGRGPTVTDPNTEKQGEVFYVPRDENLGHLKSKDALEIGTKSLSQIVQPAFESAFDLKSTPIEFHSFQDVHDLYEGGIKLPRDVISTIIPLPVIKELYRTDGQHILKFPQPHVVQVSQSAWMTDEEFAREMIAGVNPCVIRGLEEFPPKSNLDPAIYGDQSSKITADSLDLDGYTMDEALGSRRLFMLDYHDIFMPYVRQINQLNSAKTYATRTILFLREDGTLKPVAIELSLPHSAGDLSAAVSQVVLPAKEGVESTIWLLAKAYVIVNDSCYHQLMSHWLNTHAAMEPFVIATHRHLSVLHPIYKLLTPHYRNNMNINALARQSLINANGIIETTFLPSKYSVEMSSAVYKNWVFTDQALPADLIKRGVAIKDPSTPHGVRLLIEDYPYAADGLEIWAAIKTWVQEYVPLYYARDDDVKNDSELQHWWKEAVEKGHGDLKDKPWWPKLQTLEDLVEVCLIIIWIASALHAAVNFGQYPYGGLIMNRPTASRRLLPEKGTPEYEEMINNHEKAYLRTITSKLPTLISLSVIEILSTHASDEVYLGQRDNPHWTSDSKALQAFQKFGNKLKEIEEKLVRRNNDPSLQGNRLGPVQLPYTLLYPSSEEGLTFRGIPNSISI
Protocol: The LOX inhibition assays were performed with MGSDs. The inhibitory activity was measured by a modified spectrophotometric method[16],[39]. The plant LOX pathway is in many respects equivalent to the ‘arachidonic acid cascades’ in animals. For this reason, the in vitro inhibition of LOX constitutes a good model for the screening of compounds with anti-inflammatory potential[40],[41]. LOX (Lipoxidase from Glycine max (15- LOX); EC 1.13.11.12) type I-B (Soybean), and linoleic acid were purchased from Sigma (Sigma-Aldrich, UK) and used without further purification. Enzyme solution of 1.03 µM was prepared in 0.2 mM borate buffer, pH 8.5. The substrate, linoleic acid solution of 0.3 mM was also prepared in the borate buffer at the same pH. […] The final concentration of MGSDs used for the analysis was 20 µM. The assay mixture was made of 50 µL of LOX, 50 µL of the test solution and 360 µL of the substrate. The final volume was made up to 2 mL with corresponding borate buffer quantity. The activity of LOX was measured on the formation of […], which was monitored at 234 nm on spectrophotometer, (HITACHI U 2900, Japan). The same procedure was repeated with triplicate for the confirmation of LOX inhibitory activity[16],[39].

[2] = Solubility noted on sample preparation; format: physicochemical; details: water
FCA-induced arthritis [3] = assay: FCA-induced arthritis: organ index (liver, spleen); format: in vivo, Sprague–Dawley (SD) rats; details: FCA rats, end of experiment
Protocol: (§1) Chronic inflammation induced by Freund's Complete Adjuvant contains a suspension of heat-killed Mycobacterium tuberculosis in the vehicle (Chondrex, Labex Corporation). 100 μL of FCA (10 mg/mL) was injected intradermally to the left-hand paw of SD rats[42]. […] Induction of inflammation became chronic by 9–12 days and then rats were divided into 7 groups having 6 rats in each group. Everything possible was done to minimize the suffering of experimental animals. Minimum number of rats only were drafted to generate reliable data. 42 rats were randomly allocated into seven groups (6 × 7).
(§2) Group I (n = 6) served as normal rats that received an equal volume of vehicle control. Group II (n = 6) was arthritic model control treated with vehicle only. Group III (n = 6) was arthritic control which received the diclofenac (10 mg.kg^–1). Groups IV (n = 6), V (n = 6), VI (n = 6) and VII (n = 6) were treated with a low and high dose of methyl gallate (20 mg.kg^–1, 40 mg.kg^–1) and MGSD 1 (1 mg.kg^–1, 10 mg.kg^–1). The drugs were orally administered through oral gavage daily in PBS vehicle for 28 days.
At the end of the experiments, animals were euthanized using ketamine injection. The liver and spleen were removed at the end of the experiment and weighed. The index of the organs was expressed as the percentage (%) wet weight of organ versus body weight. The organ indexes were calculated by using the following formula Organindex=Weightoforgang/Bodyweightg×100.

FCA-induced arthritis [4] = details: for ALP / SGOT / SGPT: FCA rats, serum; for liver damage: rat, in vivo
Protocol: as §1, §2
Blood was drawn from jugular vein[43] and collected in heparinized tubes and used for further analysis. By using Horiba 5-part hematology analyzer the blood parameters like RBC, WBC, neutrophil and hemoglobin were analyzed. Serum parameters were analyzed using Stat Fax autoanalyzer. Serum glutamic pyruvic transaminase (SGPT), serum glutamic oxaloacetic transaminase (SGOT) and alkaline phosphatase (ALP) were determined using standard diagnostic kits (Proton, Accurex).

[5] = molecular target: T1, Lipoxidase from Glycine max (15- LOX); set-up: method as in PMID 29847215; details: read-out: IC50 (LOX enzyme); previous study ref 16; cited from earlier work

O=C(O)COc1cc(C(=O)O)cc(OCC(=O)O)c1OCC(=O)O [MGSD 1, 2,2′,2″-((5-carboxybenzene-1,2,3-triyl)tris(oxy)) tri acetic acid]
inhibition at 20 µM ([1]; 20 μM compound): 70 ± 3.45% | solubility [2]: soluble in water | Organ index (%) Liver (FCA-induced arthritis [3]; 1 mg.kg^−1 oral): 3.21 ± 0.12% | Organ index (%) Spleen (FCA-induced arthritis [3]; 1 mg.kg^−1 oral): 0.24 ± 0.00% | Organ index (%) Liver (FCA-induced arthritis [3]; 10 mg.kg^−1 oral): 3.18 ± 0.48% | Organ index (%) Spleen (FCA-induced arthritis [3]; 10 mg.kg^−1 oral): 0.22 ± 0.00% | ALP (FCA-induced arthritis [4]; 1 mg.kg^−1 oral): 435 ± 72.16 | SGOT (FCA-induced arthritis [4]; 1 mg.kg^−1 oral): 162 ± 7.57 IU/L | SGPT (FCA-induced arthritis [4]; 1 mg.kg^−1 oral): 85 ± 2.60 IU/L | ALP (FCA-induced arthritis [4]; 10 mg.kg^−1 oral): 309 ± 54.42 | SGOT (FCA-induced arthritis [4]; 10 mg.kg^−1 oral): 179 ± 3.52 IU/L | SGPT (FCA-induced arthritis [4]; 10 mg.kg^−1 oral): 82 ± 1.73 IU/L | liver damage (FCA-induced arthritis [4]): did not show any liver damage

COC(=O)c1cc(O)c(O)c(O)c1 [Methyl gallate]
inhibition at 200 µM ([1]; 0.2 mM compound): 61 ± 1.35% | Organ index (%) Liver (FCA-induced arthritis [3]; 20 mg.kg^−1 oral): 3.59 ± 0.03 % | Organ index (%) Spleen (FCA-induced arthritis [3]; 20 mg.kg^−1 oral): 0.27 ± 0.01% | Organ index (%) Liver (FCA-induced arthritis [3]; 40 mg.kg^−1 oral): 3.63 ± 0.11 % | Organ index (%) Spleen (FCA-induced arthritis [3]; 40 mg.kg^−1 oral): 0.28 ± 0.02% | SGOT (FCA-induced arthritis [4]; 20 mg.kg^−1 oral): 243 ± 13.28 IU/L | SGPT (FCA-induced arthritis [4]; 20 mg.kg^−1 oral): 94 ± 3.17 IU/L | SGOT (FCA-induced arthritis [4]; 40 mg.kg^−1 oral): 183 ± 6.38 IU/L | SGPT (FCA-induced arthritis [4]; 40 mg.kg^−1 oral): 102 ± 2.18 IU/L | liver damage (FCA-induced arthritis [4]): did not show any liver damage | IC50 [5]: 30.7 µM
